Entries after “also recorded” stand apart in the source; their conditions may differ. Like-named read-outs stand apart in the source and are kept apart here.
Columns and labels:
[1] = target: T1, E. coli PanK (CoAA) (Escherichia coli, UniProt P0A6I3); assay: Kinetic assay of pantetheine analogs as substrates of PanK; type: biochemical; conditions: for Km / kcat: compound as substrate of E. coli PanK; for Km, fold lower: compared with pantothenate
T1 sequence (P0A6I3 1-316): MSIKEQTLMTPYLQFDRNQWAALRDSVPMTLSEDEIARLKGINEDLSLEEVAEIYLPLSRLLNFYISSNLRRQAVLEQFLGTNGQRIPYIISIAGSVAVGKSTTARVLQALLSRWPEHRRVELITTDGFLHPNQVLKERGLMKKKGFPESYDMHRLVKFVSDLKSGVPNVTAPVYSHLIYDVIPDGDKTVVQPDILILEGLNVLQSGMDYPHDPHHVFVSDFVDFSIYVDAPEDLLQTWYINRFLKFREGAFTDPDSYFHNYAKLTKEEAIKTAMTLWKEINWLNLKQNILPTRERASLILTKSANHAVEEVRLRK
Protocol: As mentioned earlier, phosphorylation of the primary hydroxyl group of pantothenate by the first protein in the CoA biosynthesis pathway, PanK, is believed to be the rate limiting step in vivo. Jackowski and Rock, J. Bacteria 148:926, 1981. Due to its role as the gatekeeper of CoA biosynthesis, each of the new analogs was assayed for kinetic activity with PanK (Table 2).
The assay was performed as previously described using the prototypical bacterial PanK, CoAA from E. coli. Kumar and Aldrich, Org. Lett. 5:613, 2003. The reaction of CoAA with the natural substrate pantothenate gave values that conformed to those previously reported in the literature. Worthington and Burkart, Org. Biomol. Chem. 4:44, 2005; Strauss and Begley, J. Biol. Chem. 277:48205, 2002. […] Conversely, compounds with PEG linkers between the pantoic acid moiety and the bioorthogonal terminus were poor substrates for CoAA.

[2] = test system: E. coli overexpressing the carrier protein VibB and the PPTase Sfp; assay: In vivo uptake: carrier protein labeling in E. coli; type: cell-based; conditions: 1 mM compound, 4 hours of growth, SDS-PAGE fluorescence or western blot
Protocol: (§1) (a) Analogs were assayed for gel shift after reaction with CoA biosynthesis enzymes (CoAA/D/E), PPTase (Sfp) and carrier protein (E. coli ACP). Conversion of apo-ACP to reporter modified crypto-ACP causes a change in the mobility of the protein on native PAGE. (b) In vitro modification of the carrier protein VibB by reaction with fluorescent pantetheine analogs, CoA biosynthesis enzymes (CoAA/D/E) and Sfp. (c) In vivo modification of carrier protein by incubation of fluorescent pantetheine analogs with E. coli overexpressing VibB and the PPTase Sfp. (d) In vitro modification of VibB by reaction with bioorthogonal pantetheine analogs, CoA biosynthesis enzymes (CoAA/D/E) and Sfp. Labeled carrier protein is visualized by chemoselective ligation to the appropriate biotin reporter (9-11) followed by SDS-PAGE, blotting onto nitrocellulose, and incubation with streptavidin-linked alkaline phosphatase. (e) In vivo modification of carrier protein by incubation of bioorthogonal pantetheine analogs with E. coli overexpressing VibB and the PPTase Sfp. Visualization as in (d).
(§2) The library of pantetheine analogs was tested for integration into the E. coli CoA pathway using an in vivo assay. Clarke et al., J. Am. Chem. Soc. 127:11234, 2005. E. coli overexpressing the carrier protein VibB and the PPTase Sfp were incubated with 1 mM of each compound in 1 ml of culture. After 4 hours of growth cells were pelleted, washed, and lysed. Lysate from these cultures was run on SDS-PAGE gels and detection carried out as described for the in vitro studies. […] To verify the results of the gels and blots, samples of crude lysate were assayed by MALDI-MS (FIG. 11). For MALDI-MS analysis doubly transformed E. coli containing plasmids for the carrier protein Fren and the PPTase Sfp were used.

[3] = target: CoAA (Escherichia coli, UniProt P0A6I3); conditions: pantothenate as substrate
From the text: To isolate and investigate the effect of H-bond accepting heteroatoms in the linker region, pantetheine analogs 15 and 16 were synthesized. […] Virga et al., Bioorg. Med. Chem. 14:1007, 2006. […] To test if these compounds were acting as inhibitors of CoAA, a competitive kinetic assay was set up using pantotenate as the substrate. […] Ivey et al., J. Biol. Chem. 279:35622, 2004. Investigation of these compounds as potential inhibitor scaffolds is ongoing.

[4] = test system: CoA biosynthetic enzymes (CoAA/D/E), PPTase Sfp and apo-ACP; conditions: MALDI-MS, in vitro
From the text: To confirm the results from this assay, the reaction mixtures were subjected to matrix-assisted laser desorption/ionization mass spectrometry (MALDI-MS). […] Compound 13 was reacted with the CoAA biosynthesis enzymes, ACP, and Sfp as described above and the reaction mix analyzed by MALDI without further purification.
Apo-ACP (a) is reacted with pantetheine analogs, CoA biosynthetic enzymes (CoAA/D/E) and the PPTase Sfp.

[5] = test system: CoA biosynthesis enzymes (CoAA/D/E), PPTase (Sfp) and carrier protein (E. coli ACP); conditions: native PAGE
Protocol: Virga et al., Bioorg. Med. Chem. 14:1007, 2006. […] Clarke et al., J. Am. Chem. Soc. 127:11234, 2005.
as §1

[6] = target: T1, E. coli PanK (CoAA); conditions: natural pantetheine, from reference 14, cited from earlier work
[7] = test system: E. coli containing plasmids for the carrier protein Fren and the PPTase Sfp; assay: MALDI-MS of crude lysate after in vivo labeling; type: cell-based
Protocol: as §2

[8] = compound 3 (β-Ala linkage) versus compound 1

SMILES	substrate suitability for CoAA/PanK (in words) [1]	Km [1] [µM]	kcat [1] [s⁻¹]	modification of VibB in vivo (detectability) [2]	Km compared with natural substrate pantothenate (fold higher) [1]	turnover compared with the natural substrate (in words) [1]	further results
CC(C)(CO)[C@@H](O)C(=O)NCCC(=O)NCCN=[N+]=[N-] [Compound 3]	kcat and Km values closely approaching those of the natural substrate	43.5 ± 1.99	0.46695 ± 0.007	detectable modification of VibB in vivo; also recorded: biodetectible in E. coli	–	–	increase in Km [1, 8]: 10 fold; increase in catalytic efficiency [1, 8]: ~20 fold
CC(C)(CO)[C@@H](O)C(=O)NCCC(=O)NCCNC(=O)CCN=[N+]=[N-] [Compound 5]	processed particularly efficiently by PanK	71.9 ± 6.98	0.6818 ± 0.0187	detectable modification of VibB in vivo; also recorded: biodetectible in E. coli	two fold higher	exceeding	–
CN(C)c1ccc2c(CC(=O)NCCCOCCNC(=O)[C@H](O)C(C)(C)CO)cc(=O)oc2c1 [Compound 15]	extremely poor substrates; also recorded: losing almost all substrate activity	0.76 ± 0.32	0.0227 ± 0.00083	–	–	–	Km, fold lower [1]: 100 fold; mode of inhibition of CoAA [3]: non-competitive inhibitor
CC(C)(CO)[C@@H](O)C(=O)NCCOCCOCCNC(=O)CCN=[N+]=[N-] [Compound 7]	viable substrates	53.8 ± 11.2	0.103 ± 0.00733	–	two-fold higher	–	–
CN(C)c1ccc2c(CC(=O)NCCOCCOCCNC(=O)[C@H](O)C(C)(C)CO)cc(=O)oc2c1 [Compound 17]	viable substrates	51.2 ± 6.42	0.1677 ± 0.00717	–	two-fold higher	–	conversion to CoA analog and transfer onto carrier protein ACP [4]: converted to CoA analogs and modify ACP
CN(C)c1ccc2c(CC(=O)NCCOCCOCCOCCOCCOCCOCCOCCOCCOCCOCCNC(=O)[C@H](O)C(C)(C)CO)cc(=O)oc2c1 [Compound 18]	such poor substrates that kinetic data could not be generated	–	–	–	–	–	change in mobility / conversion of apo-ACP to crypto-ACP [5]: multiple bands on the gel that suggest apo-protein remains
CN(C)c1cccc2c(S(=O)(=O)NCCNC(=O)CCNC(=O)[C@H](O)C(C)(C)CO)cccc12 [Compound 14]	processed particularly efficiently by PanK	27.3 ± 3.28	0.2877 ± 0.0103	–	the same as	near equal	–
CN(C)c1ccc2c(CC(=O)NCCOCCCNC(=O)[C@H](O)C(C)(C)CO)cc(=O)oc2c1 [Compound 16]	extremely poor substrates; also recorded: losing almost all substrate activity	0.14 ± 0.18	0.0167 ± 0.0005	–	–	–	Km, fold lower [1]: 100 fold
CC(=O)CCC(=O)NCCOCCOCCNC(=O)[C@H](O)C(C)(C)CO [Compound 6]	markedly decreased kinetic activity	0.196 ± 0.09	0.0267 ± 0.001	–	–	–	–
CC(C)(CO)[C@@H](O)C(=O)NCCOCCOCCOCCOCCOCCOCCOCCOCCOCCOCCN=[N+]=[N-] [Compound 8]	such poor substrates that kinetic data could not be generated	–	–	–	–	–	change in mobility / conversion of apo-ACP to crypto-ACP [5]: multiple bands on the gel that suggest apo-protein remains; conversion to CoA analog and transfer onto carrier protein ACP [4]: significantly incomplete
CC(=O)CCC(=O)NCCNC(=O)CCNC(=O)[C@H](O)C(C)(C)CO [Compound 4]	–	62.6 ± 3.89	0.344 ± 0.0075	detectable, but showed much weaker labeling; also recorded: biodetectible in E. coli	two fold higher	near equal	–
CN(C)c1ccc2c(CC(=O)NCCNC(=O)[C@H](O)C(C)(C)CO)cc(=O)oc2c1 [Compound 12]	lower turnover and catalytic efficiency than analogs containing the natural β-Ala/pantoic acid linkage; also recorded: good binding but slow turnover	37.2 ± 5.82	0.1927 ± 0.0095	detectable modification of VibB in vivo; also recorded: biodetectible in E. coli	–	–	–
CC(C)(CO)[C@@H](O)C(=O)NCCN=[N+]=[N-] [Compound 1]	–	692 ± 89.1	0.3722 ± 0.0257	–	20 fold	turnover within the range of the natural substrate	–
CC(C)(CO)[C@@H](O)C(=O)NCCC(=O)NCCS [Pantetheine]	–	–	–	–	–	–	Km [6]: 91 ± 10 µM; kcat [6]: 0.32 ± 0.0017 s⁻¹; kcat ([6]; listed as pantetheine): 0.525 s⁻¹
C#CCNC(=O)CCNC(=O)[C@H](O)C(C)(C)CO [Compound 2]	kcat and Km values closely approaching those of the natural substrate	32.9 ± 2.54	0.5242 ± 0.0125	detectable modification of VibB in vivo; also recorded: biodetectible in E. coli	–	–	–
CN(C)c1ccc2c(CC(=O)NCCCCCCNC(=O)CCNC(=O)[C@H](O)C(C)(C)CO)cc(=O)oc2c1 [Compound 13]	processed particularly efficiently by PanK	28.4 ± 6.92	0.3193 ± 0.0235	detectable modification of VibB in vivo; also recorded: biodetectible in E. coli	the same as	near equal	conversion to CoA analog and transfer onto carrier protein ACP [4]: converted to CoA analogs and modify ACP; in vivo uptake and attachment onto Fren [7]: taken up by the cell, processed into a CoA analog and attached onto Fren
